Structures are written as SMILES. Several values for one entry are separate records, joined by “and”; a condition that tells them apart may be missing. Equal entries are not always repeated. Entries after “also recorded” stand apart in the source; their conditions may differ. Where two headings read alike, the source gives them in different places. A value given as a limit tells only on which side of the number the result lay.

The target in assay [1] is T1, human dopamine transporter (Homo sapiens, UniProt Q01959).
T1 construct: expressed in transfected cells; host or cells: HEK-293
T1 sequence (Q01959 whole entry): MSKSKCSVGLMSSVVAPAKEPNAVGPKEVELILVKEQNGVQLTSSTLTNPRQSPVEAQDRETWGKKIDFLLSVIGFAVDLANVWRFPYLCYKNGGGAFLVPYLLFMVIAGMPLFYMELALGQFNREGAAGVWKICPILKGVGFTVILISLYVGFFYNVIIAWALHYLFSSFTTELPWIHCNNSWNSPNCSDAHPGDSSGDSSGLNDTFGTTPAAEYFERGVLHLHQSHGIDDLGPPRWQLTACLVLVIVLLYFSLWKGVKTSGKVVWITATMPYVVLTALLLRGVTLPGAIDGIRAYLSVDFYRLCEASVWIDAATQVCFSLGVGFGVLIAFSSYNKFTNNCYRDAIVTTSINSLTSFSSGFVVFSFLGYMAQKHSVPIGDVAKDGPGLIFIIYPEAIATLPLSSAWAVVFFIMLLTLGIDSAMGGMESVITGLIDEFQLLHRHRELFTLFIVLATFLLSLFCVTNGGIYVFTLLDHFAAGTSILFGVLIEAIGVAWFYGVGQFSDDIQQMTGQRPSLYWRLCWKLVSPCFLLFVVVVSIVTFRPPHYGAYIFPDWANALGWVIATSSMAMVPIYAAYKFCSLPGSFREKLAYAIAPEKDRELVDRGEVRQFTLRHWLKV
Briefly: [3H]cocaine binding in hDAT HEK-293 cells after pre-incubation with compound and washing. The settings on record: for Inhibition of cocaine binding after 24 h (%): 24-h pre-incubation, cells extensively washed, [3H]cocaine 20 nM, HEK-293 hDAT; for irreversible binding to the DAT: 24 hour incubation, then washing.

The target in assay [2] is T1, human dopamine transporter. Briefly: [3H]dopamine uptake in hDAT HEK-293 cells after pre-incubation with compound and washing. As to conditions: for Inhibition of DA uptake after 24 h (%): 24-h pre-incubation, cells extensively washed, HEK-293 hDAT; for decrease of [3H]dopamine transport / [3H]Dopamine transport % of control: 24 hour pre-incubation. On the set-up: Inhibition of DA uptake after 24 h (%) / Inhibition of DA uptake: concentration or dose not given beside the values. It counts as cell-based.

The target of assay [3] is serotonin transporter (SERT) (UniProt A7KAX8). Briefly: Competition binding with [3H]citalopram at the serotonin transporter. Here is the method: (§1) The affinities (IC50) of the compounds for the dopamine and serotonin transporters were determined in competition studies using [3H]2β-carbomethoxy-3β-(4-fluorophenyl)-8-methyl-8-azabicyclo[3.2.1]octane ([^3H]WIN 35,428) to label the dopamine transporter and [^3H]citalopram to label the serotonin transporter. Competition studies were conducted with a fixed concentration of radioligand and a range of concentrations of the test compound. […] The cells were then exhaustively washed to remove non-covalently bound ligand and binding of cocaine (20 nM) and dopamine uptake (Vmax) were compared.

The target of assay [4] is T2, dopamine transporter (DAT) (UniProt Q9GJT6).
T2 construct: Dopamine transporter IC50 (nM) [3H]WIN 35,428; other: unit not given
Briefly: Competition binding with [3H]WIN 35,428 at the dopamine transporter. On the procedure: as §1

Assay [5] concerns the target DAT (Macaca fascicularis, UniProt Q9GJT6). The settings on record: quoted for known ligands; cited from earlier work.
Setting [6] is: Table 5, read-out: Serotonin transporter IC50 (nM) [3H]citalopram.
The mark [7] stands for this setting: unit inferred, read-out: SERT (binding, Table 6).
Where [8] appears, read: Table 5, read-out: Dopamine transporter IC50 (nM) [3H]WIN 35,428.
[9] abbreviates: unit inferred, read-out: DAT (binding, Table 6).
Setting [10] is: 24 hour pre-incubation, O-1893 (1 uM).
Setting [11] is: 24 hours, concentration not stated (n=4).
[12] abbreviates: 24 hour pre-incubation with O-2153.

DAT, sequence (Q9GJT6 whole entry): as the sequence (Q01959 whole entry) above, with V24M, I137V, P194S, S198G, D200N, S201G, S202P counted along it

With `O=C(CCC1CO1)OCC1C2CCC(CC1c1ccc(Cl)c(Cl)c1)O2` (racemic) [Compound O-1834, 3-Oxiranyl-propionic acid [3α-(3,4-dichlorophenyl)-8-oxabicyclo[3.2.1]oct-3β-yl]methyl ester], the “Inhibition of cocaine binding after 24 h (%)” value in assay [1] amounted to 18%. In addition, in assay [1] (Table 6, incub time 24 h), the “Inhibition of Cocaine Binding” value was determined as 18%. Further, the “Inhibition of DA uptake after 24 h (%)” value in assay [2] turned out to be 68%. In assay [2] (Table 6, incub time 24 h), the “Inhibition of DA uptake” value stood at 68%. The IC50 was determined as 292 nM in assay [3] (setting [6]), 294 nM in assay [3] (setting [7]), 17 nM in assay [4] (setting [8]) and 17 nM in assay [4] (setting [9]).
As to `COC(=O)C1C2CCC(CC1c1ccc(Cl)c(Cl)c1)O2` (stereo not drawn) [2β-carbomethoxy-3α-(3′,4′-dichlorophenyl)-8-oxabicyclo[3.2.1]octane], the IC50 in assay [5] is 2.34 nM.
As for `COC(=O)[C@H]1[C@@H](OC(=O)c2ccccc2)C[C@@H]2CC[C@H]1N2C` [(−)-Cocaine, cocaine, reference compound], the results for the IC50 in assay [3] (setting [6]) and in assay [4] (setting [8]) were 270 nM and 95 nM, respectively.
Take `COCC(=O)OCCCN1C2CCC1C(C(=O)OC)C(c1ccc(F)cc1)C2` (stereo not drawn) [Compound O-1071, 2β-Carbomethoxy-3β-(4-fluorophenyl)-8-(3-methoxyacetoxypropyl)-8-azabicyclo[3 2.1]octane]: the “Inhibition of Cocaine Binding” value in assay [1] (Table 6, incub time 24 h) stood at 0%. Besides, in assay [2] (Table 6, incub time 24 h), the “Inhibition of DA uptake” value amounted to 0%. The IC50 was found to be 3000 nM in assay [3] (setting [7]) and 125 nM in assay [4] (setting [9]).
Consider `COC(=O)C1C(c2ccc(F)cc2)CC2CCC1N2CCOC(C)=O` (stereo not drawn) [Compound O-1103, 2β-Carbomethoxy-3β-(4-fluorophenyl)-8-(2-acetoxyethyl)-8-azabicyclo[3.2.1]octane], for which the “Inhibition of Cocaine Binding” value in assay [1] (Table 6, incub time 24 h) is listed as 0%. Further, the “Inhibition of DA uptake” value in assay [2] (Table 6, incub time 24 h) was determined as 0%. For the same compound, the IC50 in assay [3] (read-out: SERT (binding, Table 6), unit inferred) amounted to 200 nM; in assay [4] (read-out: DAT (binding, Table 6), unit inferred), 20 nM.
As for `COC(=O)C1C(c2ccc(F)cc2)CC2CCC1N2CCN1C(=O)C=CC1=O` (stereo not drawn) [Compound O-1233, 2β-Carbomethoxy-3β-(4-fluorophenyl)-8-(2-maleimidoethyl)-8-azabicyclo[3.2.1]octane], the “Inhibition of Cocaine Binding” value in assay [1] (Table 6, incub time 1 h) came out at 50%/1 h. The IC50 was 3000 nM in assay [3] (setting [7]) and 237 nM in assay [4] (setting [9]).
In the case of `CCN1C(=O)C=CC1=O` [Compound O-1765], in assay [1] (Table 6, incub time 24 h), the “Inhibition of Cocaine Binding” value stood at 35%. Besides, in assay [2] (Table 6, incub time 24 h), the “Inhibition of DA uptake” value worked out at 35%.
With `C=CCCC(=O)OCC1C2CCC(CC1c1ccc(Cl)c(Cl)c1)O2` (stereo not drawn) [Compound O-1893, pent-4-enoic acid-(3α-(3,4-dichlorophenyl)-8-oxabicyclo[3.2.1]oct-2β-yl)methyl ester], the “Inhibition of cocaine binding after 24 h (%)” value in assay [1] is listed as 63%. The “[3H]cocaine binding % of control” value in assay [1] (1 hour pre-incubation) was 12 % of control and 10 % of control and 7 % of control; in assay [1] (setting [10]), 45 % of control and 43 % of control and 42 % of control and 49 % of control. Also, in assay [1], the “irreversible binding to the DAT” value is “no irreversible binding took place”. For the same compound, in assay [1] (24 hour pre-incubation, higher concentration (5 uM, different cells)), the “decline of specific [3H]cocaine binding sites” value came to 62%. The “Tot- NS (dpms)” value in assay [1] (setting [10]) was 3,154 dpms and 3,853 dpms and 4,913 dpms and 6,331 dpms. Besides, the “reduction of [3H]cocaine binding (CDPM)” value in assay [1] (setting [11]) is “more than 50%”. Besides, the “Inhibition of DA uptake after 24 h (%)” value in assay [2] was 23%; in assay [2] (listed as 3) it was “much reduced; also recorded: no inhibition”. Further, the “Dopamine transport % of control” value in assay [2] (1 hour pre-incubation) is 29 % of control and 43 % of control and 27 % of control. The “decrease of [3H]dopamine transport” value in assay [2] (1 uM) is 5%; in assay [2] (higher concentration (5 uM, different cells)), 23% and 22%. Moreover, the “[3H]Dopamine transport % of control” value was 91 % of control and 98 % of control and 95 % of control in assay [2] (O-1893 (1 uM)); 80 % of control and 72 % of control and 81 % of control and 90 % of control and 67 % of control in assay [2] (O-1893-2 (5 uM, different cells), 5 µM). In addition, the “reduction of [3H]dopamine transport” value in assay [2] (setting [11]) was “reduced to a lesser extent”. The “transporter affinity for dopamine” value in assay [2] (initially, within one hour of preincubation (n=3)) is recorded as “reduced”. Besides, the IC50 in assay [3] (setting [6]) amounted to 593 nM; in assay [4] (setting [8]), 20 nM.
With `COC(=O)C1C(c2ccc(F)cc2)CC2CCC1N2CCOC(=O)CCC1CO1` (stereo not drawn) [Compound O-1899, 2β-Carbomethoxy-3β-(4-fluorophenyl)-8-[2-(3-oxiranylpropionyloxy)ethyl]-8-azabicyclo[3.2.1]octane], the “Inhibition of Cocaine Binding” value in assay [1] (Table 6, incub time 24 h) is reported as 0%; in assay [1] (Table 6, incub time 48 h), 40%. In addition, the “Inhibition of DA uptake” value in assay [2] (Table 6, incub time 24 h) was 0%; in assay [2] (Table 6, incub time 48 h), 20%. The values for the IC50 in assay [3] (setting [7]) and in assay [4] (setting [9]) were 230 nM and 53 nM, respectively.
Turning to `CC(C)CC(=O)OCC1C2CCC(CC1c1ccc(Cl)c(Cl)c1)O2` (stereo not drawn) [Compound O-2059, 3-Methylbutanoic acid-[3α-(3,4-dichlorophenyl)-8-oxabicyclo[3.2.1]oct-2β-yl]methyl ester], in assay [1], the “Inhibition of cocaine binding after 24 h (%)” value was determined as 60%. In addition, the “Inhibition of DA uptake after 24 h (%)” value in assay [2] was 60%. Moreover, the results for the IC50 in assay [3] (setting [6]) and in assay [4] (setting [8]) were 515 nM and 75 nM, respectively.
Regarding `CCCCC(=O)OCC1C2CCC(CC1c1ccc(Cl)c(Cl)c1)O2` (stereo not drawn) [Compound O-2102, Pentanoic acid-[3α-(3,4-dichlorophenyl)-8-oxabicyclo[3.2.1]oct-2β-yl]methyl ester], in assay [1], the “Inhibition of cocaine binding after 24 h (%)” value is recorded as 0%. In assay [2], the “Inhibition of DA uptake after 24 h (%)” value came to 0%. In addition, the values for the IC50 in assay [3] (setting [6]) and in assay [4] (setting [8]) were 917 nM and 71 nM, respectively.
As for `C=CCCCOCC1C2CCC(CC1c1ccc(Cl)c(Cl)c1)O2` (stereo not drawn) [Compound O-2153, 3α-(3,4-dichlorophenyl)-2β-pent-4-enyloxymethyl-8-oxabicyclo[3.2.1]octane], in assay [1], the “Inhibition of cocaine binding after 24 h (%)” value is recorded as 80% and the “irreversible binding to the DAT” value is given as “bound irreversibly”. In addition, in assay [1] (setting [12]), the “Tot- NS (dpms) (column head not given, as Table 3)” value was 12,216 and 6,792; the “[3H]cocaine binding % of control (column head not given, as Table 3)” value is 28 and 18. The “Inhibition of DA uptake after 24 h (%)” value in assay [2] is reported as 40%. Besides, the “[3H]Dopamine transport % of control (column head not given, as Table 3)” value in assay [2] (setting [12]) is 51 and 54. For the same compound, the IC50 in assay [3] (setting [6]) was 755 nM. In addition, the IC50 in assay [4] (setting [8]) was 58 nM.
As for `C=CCOC(=O)C1C2CCC(CC1c1ccc(Cl)c(Cl)c1)O2` (centres unmarked) [Compound O-2227], the “Inhibition of Cocaine Binding” value is on record as 0% in assay [1] (Table 6, incub time 1 h) and 55% in assay [1] (Table 6, incub time 24 h). For the same compound, the “Inhibition of DA uptake” value came to 0% in assay [2] (Table 6, incub time 1 h) and 40% in assay [2] (Table 6, incub time 24 h). Further, the IC50 in assay [3] (setting [7]) was 32 nM; in assay [4] (setting [9]), 3 nM.
As to `O=C(OCCN1C(=O)C=CC1=O)C1C(c2ccc(F)cc2)CC2CCC1N2CCN1C(=O)C=CC1=O` (centres unmarked) [Compound O-2315], the IC50 in assay [3] (setting [7]) turned out to be 14000 nM; in assay [4] (setting [9]), 2000 nM.
As to `O=C(OCCCN1C(=O)C=CC1=O)C1C(c2ccc(F)cc2)CC2CCC1N2CCN1C(=O)C=CC1=O` (centres unmarked) [Compound O-2335], the IC50 came out at 10000 nM in assay [3] (setting [7]) and 300 nM in assay [4] (setting [9]).
For `O=C(OCCCN1C(=O)C=CC1=O)C1C(c2ccc(F)cc2)CC2CCC1N2CCCN1C(=O)C=CC1=O` (centres unmarked) [Compound O-2492] the same measures were 2000 nM and 237 nM.
As for `C=CCCC(=O)OCC1C(c2ccc(F)cc2)CC2CCC1N2C` (centres unmarked) [Compound O-2517], the IC50 in assay [4] (setting [9]) was 60 nM.
On the same count and under the same terms, the same measure for `C=CCCCOCC1C(c2ccc(F)cc2)CC2CCC1N2C` (centres unmarked) [Compound O-2528]: 41 nM; for `C=CCCNC(=O)C1C(c2ccc(F)cc2)CC2CCC1N2C` (centres unmarked) [Compound O-2578]: 800 nM.
The same measure, in the same setting: the same measure for `C=CCCNCC1C(c2ccc(F)cc2)CC2CCC1N2C` (centres unmarked) [Compound O-2583]: 500 nM.
As for `CCN1C(=O)C=CC1=O` [N-Ethylmaleimide, N-ethylmaleimide, reference compound], in assay [1], the “Inhibition of cocaine binding after 24 h (%)” value amounted to 35% and the “irreversible binding to the DAT” value is “did manifest irreversible binding”. Moreover, the “Inhibition of DA uptake after 24 h (%)” value in assay [2] is 35%. The IC50 in assay [3] (setting [6]) was > 100000 nM. For the same compound, the IC50 in assay [4] (read-out: Dopamine transporter IC50 (nM) [3H]WIN 35,428, Table 5) was > 100000 nM.
On to `COC(=O)C1C(c2ccc(F)cc2)CC2CCC1N2C` (stereo not drawn) [WIN 35,428, 2β-carbomethoxy-3β-(4-fluorophenyl)-8-methyl-8-azabicyclo[3.2.1]octane, reference compound], for which, in assay [1], the “irreversible binding to the DAT” value is listed as “did not bind irreversibly”. Further, the IC50 was 160 nM in assay [3] (setting [6]), 11 nM in assay [5] and 11 nM in assay [4] (setting [8]).

The values above are taken from patent publication US7439264B2, “Therapeutic compounds” (President and Fellows of Harvard College, priority 2002, dated 2008).
